Laboratory results: article PMC5618341, “Controlled inhibition of methyltransferases using photoswitchable peptidomimetics: towards an epigenetic regulation of leukemia” (Chemical Science, 2017)
Read-outs that look alike come from different tables or passages of the source. Starred links: 1 amine or outer side, 2 acyl side, 3 side chain; linkers in the order of their positions; H or OH if unused. Positions of bridges follow the written chain, without caps; N, C: chain ends. Non-standard residues stand in square brackets, D forms with d. Residues, ends and D or L forms follow the SMILES beside them. *: point of attachment. AMPB(E) = O=C(c1ccc(/N=N/c2ccc(CN[*:1])cc2)cc1)[*:2]; AMPB = O=C(c1ccc(N=Nc2ccc(CN[*:1])cc2)cc1)[*:2]; X1 = O=C(c1ccc(/N=N\c2ccc(CN[*:1])cc2)cc1)[*:2]; d(αMeK) = C[C@@](N)(CCCCN)C(=O)O; dPhg = N[C@@H](C(=O)O)c1ccccc1; Isobutyryl = CC(C)C(=O)*; Abu = CC[C@H](N)C(=O)O; Ahx = NCCCCCC(=O)O; βAla = NCCC(=O)O

Key:
WDR5Δ23 = target: T1, WDR5Δ23 (Homo sapiens, UniProt P61964); test: Fluorescence polarization (FP)-based competitive binding assay
T1 construct: His6-SUMO (N, cleaved yes); made in house; host or cells: E. coli DH5α (so in the source)

[1] = tested on: MLL-AF9-transduced mouse bone marrow cells; test: Proliferation / cell viability assay (CellTiter-Glo); type: cell-based; details: for Inhibition (%) of growth: 5 μM
Description: (§1) We initially studied the cellular uptake and cell viability of our compounds in murine MLL-AF9-transduced mouse bone marrow cells (Fig. 5). In line with our expectations, peptidomimetics 16 and 17 that contained peptide 7 within their sequence are the ones that inhibited the cell proliferation of leukemia. […] Thus, while in the case of the trans isomer of peptidomimetic 16 we already determined less than 50% of viable cells at 2.5 μM concentration, with the WIN-containing conjugates 20 and 21 we measured 87% and 96% of viable cells at 50 μM concentration, respectively.
(§2) We then examined the potential of 16 and 17 to control externally the cellular response in proliferation assays. Thus, both isomers of both peptidomimetics were incubated at different concentrations for four days. After two days of incubation, the cells containing the cis isomers were irradiated at 430 nm for 90 seconds in a single isomerization cycle with a custom-made 6-well plate LED array.
(§3) MLL-AF9-transduced mouse bone marrow was cultured in IMDM medium + 15% FBS and supplemented with 10 ng/mL interleukin-3 (IL-3) at each passage, every other day.
(§4) DMSO) isomers, of peptides 7, 16, 17, as well as the peptides 18 and 19 were diluted from stock to culture media containing a 0.1% DMSO final concentration. For viability assays, […]
(§5) 72 h and DMSO as control . For the cis-trans group, after 48 h treatment with cis peptides, the plate was irradiated at […] for 90 sec and continued to culture for 2 days in the dark.
(§6) Viability was determined using the CellTiter-Glo Kit (Promega) according to the a a ’ d . was monitored on a Molecular Devices plate reader.

[2] = target: MLL1 core complex (MLL1, WDR5, RbBP5, and ASH2L) (Homo sapiens, UniProt P61964); test: biochemical
Description: To test this, we studied the inhibition of MLL1 H3K4 methyltransferase activity through the previously reported in vitro HMT assay using the MLL1 core complex (i.e. MLL1, WDR5, RbBP5, and ASH2L) and the H3 20mer peptide as substrate.[17]
In Vitro Methyl Transferase Assay with MLL1 Core Complex
In Vitro Histone Methyltransferase (HMT) Assay
The HMT assay was performed, as previously described[25] with slight modifications, in 50 mM Tris pH 8.0, 50 mM NaCl, 1.0 mM DTT, 5 mM MgCl2 at room temperature. Each reaction contained 1.5 μM of the cofactor 3H-S-adenosylmethionine (Perkin-Elmer). H31-21 peptide was used as the substrate at 250 μM. […] Reactions were initiated by addition of the H3/SAM and allowed to proceed for 60 min before preparing scintillation counting. To count samples, reactions were spotted on separate squares of P81 filter paper (Millipore) and precipitated by submerging in freshly prepared 50 mM sodium bicarbonate buffer pH = 9.0. After washing and drying, the samples were vortexed in Ultima Gold scintillation fluid and counted.

[3] = Proliferation / cell viability assay (CellTiter-Glo); type: cell-based, mouse
Description: as §1, §2, §3, §4, §5, §6

[4] = IC50 cis (with 5 nM tracer), cis isomer (366 nm), 20 nM WDR5Δ23, 5 nM tracer 22
[5] = IC50 trans (with 5 nM tracer), trans isomer, 20 nM WDR5Δ23, 5 nM tracer 22
[6] = non-irradiated peptide (trans isomer), 72 nM WDR5Δ23, 20 nM tracer 22, read-out: IC50, non-irradiated (trans)
[7] = non-irradiated peptide (trans isomer), 72 nM WDR5Δ23, 20 nM tracer 22, read-out: Ki, non-irradiation (trans)

Compound	IC50 (WDR5Δ23; [6])	Ki (WDR5Δ23; [7])	further results
CC(C)C[C@H](NC(=O)[C@H](Cc1c[nH]cn1)NC(=O)[C@@H](NC(=O)c1ccc(/N=N\c2ccc(CNC(=O)[C@H](C)NC(=O)[C@H](CCCNC(=N)N)NC(=O)[C@H](C)NC(=O)[C@@H](N)CO)cc2)cc1)C(C)C)C(=O)N[C@@H](CCCNC(=N)N)C(=O)N[C@@H](CCCCN)C(=O)N[C@@H](CO)C(N)=O [7cis, H2N-SARAXVHLRKS-CONH2] (H-SARA[X1]VHLRKS-NH2)	–	–	IC50 (WDR5Δ23; [4]): 147 ± 14 nM; Inhibition (%) of growth ([1]; 96 h incubation): ≈ 0%; IC50 [2]: 8230 ± 380 nM
CC(C)C[C@H](NC(=O)[C@H](Cc1c[nH]cn1)NC(=O)[C@@H](NC(=O)c1ccc(/N=N/c2ccc(CNC(=O)[C@H](C)NC(=O)[C@H](CCCNC(=N)N)NC(=O)[C@H](C)NC(=O)[C@@H](N)CO)cc2)cc1)C(C)C)C(=O)N[C@@H](CCCNC(=N)N)C(=O)N[C@@H](CCCCN)C(=O)N[C@@H](CO)C(N)=O [7trans, H2N-SARAXVHLRKS-CONH2] (H-SARA[AMPB(E)]VHLRKS-NH2)	–	–	IC50 (WDR5Δ23; [5]): 57 ± 11 nM; Inhibition (%) of growth ([1]; 96 h incubation): 0%; IC50 [2]: 531 ± 23 nM
CC(C)C[C@H](NC(=O)[C@H](Cc1c[nH]cn1)NC(=O)[C@@H](NC(=O)c1ccc(/N=N\c2ccc(CNC(=O)[C@H](C)NC(=O)[C@H](CCCNC(=N)N)NC(=O)[C@H](C)NC(=O)[C@@H](N)CO)cc2)cc1)C(C)C)C(=O)N[C@@H](CCCNC(=N)N)C(=O)N[C@@H](CCCCN)C(=O)N[C@@H](CO)C(=O)N[C@@H](CCCNC(=N)N)C(=O)N[C@@H](CCCNC(=N)N)C(=O)N[C@@H](CCCNC(=N)N)C(=O)N[C@@H](CCCNC(=N)N)C(=O)N[C@@H](CCCNC(=N)N)C(=O)N[C@@H](CCCNC(=N)N)C(=O)N[C@@H](CCCNC(=N)N)C(=O)N[C@@H](CCCNC(=N)N)C(N)=O [16cis, H2N-SARA-AMPB-VHLRKS-R8-NH2] (H-SARA[X1]VHLRKSRRRRRRRR-NH2)	–	–	GI50 ([1]; 96 h): 2880 ± 240 nM
CC[C@@H]1NC(=O)[C@H](CCCN=C(N)N)NC(=O)[C@](C)(NC(=O)C(C)C)CCCCNC(=O)[C@@H](c2ccccc2)NC1=O [MM401, reference compound] (Isobutyryl-[d(αMeK)]R[Abu][dPhg]; lactam 1-C)	–	–	GI50 ([1]; 96 h incubation, cis isomers kept in the dark, read-out: GI50): 9760 nM
CC(C)C[C@H](NC(=O)[C@H](Cc1c[nH]cn1)NC(=O)[C@@H](NC(=O)[C@H](CCC(=O)O)NC(=O)[C@H](C)NC(=O)[C@H](CCCNC(=N)N)NC(=O)c1ccc(N=Nc2ccc(CNC(=O)[C@@H](N)CO)cc2)cc1)C(C)C)C(=O)N[C@@H](CCCNC(=N)N)C(=O)N[C@@H](CCCCN)C(=O)N[C@@H](CO)C(N)=O [peptide 5, H2N-SXRAEVHLRKS-CONH2] (H-S[AMPB]RAEVHLRKS-NH2)	3910 ± 830 nM	66.8 ± 10 nM	–
CC(C)C[C@H](NC(=O)[C@H](Cc1c[nH]cn1)NC(=O)c1ccc(N=Nc2ccc(CNC(=O)[C@H](CCC(=O)O)NC(=O)[C@H](C)NC(=O)[C@H](CCCNC(=N)N)NC(=O)[C@H](C)NC(=O)[C@@H](N)CO)cc2)cc1)C(=O)N[C@@H](CCCNC(=N)N)C(=O)N[C@@H](CCCCN)C(=O)N[C@@H](CO)C(N)=O [peptide 8, H2N-SARAEXHLRKS-CONH2] (H-SARAE[AMPB]HLRKS-NH2)	210 ± 35 nM	2.4 ± 0.6 nM	–
CC(C)C[C@H](NC(=O)c1ccc(N=Nc2ccc(CNC(=O)[C@@H](NC(=O)[C@H](CCC(=O)O)NC(=O)[C@H](C)NC(=O)[C@H](CCCNC(=N)N)NC(=O)[C@H](C)NC(=O)[C@@H](N)CO)C(C)C)cc2)cc1)C(=O)N[C@@H](CCCNC(=N)N)C(=O)N[C@@H](CCCCN)C(=O)N[C@@H](CO)C(N)=O [peptide 9, H2N-SARAEVXLRKS-CONH2] (H-SARAEV[AMPB]LRKS-NH2)	2530 ± 390 nM	40.4 ± 3.9 nM	–
CC(C)[C@H](NC(=O)[C@H](CCC(=O)O)NC(=O)[C@H](C)NC(=O)[C@H](CCCNC(=N)N)NC(=O)[C@H](C)NC(=O)[C@@H](N)CO)C(=O)N[C@@H](Cc1c[nH]cn1)C(=O)NCc1ccc(N=Nc2ccc(C(=O)N[C@@H](CCCNC(=N)N)C(=O)N[C@@H](CCCCN)C(=O)N[C@@H](CO)C(N)=O)cc2)cc1 [peptide 10, H2N-SARAEVHXRKS-CONH2] (H-SARAEVH[AMPB]RKS-NH2)	1150 ± 120 nM	17 ± 1.9 nM	–
CC(C)C[C@H](NC(=O)[C@H](Cc1c[nH]cn1)NC(=O)[C@@H](NC(=O)[C@H](CCC(=O)O)NC(=O)[C@H](C)NC(=O)[C@H](CCCNC(=N)N)NC(=O)[C@H](C)NC(=O)[C@@H](N)CO)C(C)C)C(=O)NCc1ccc(N=Nc2ccc(C(=O)N[C@@H](CCCCN)C(=O)N[C@@H](CO)C(N)=O)cc2)cc1 [peptide 11, H2N-SARAEVHLXKS-CONH2] (H-SARAEVHL[AMPB]KS-NH2)	2140 ± 280 nM	32.8 ± 4.5 nM	–
CC(C)C[C@H](NC(=O)[C@H](Cc1c[nH]cn1)NC(=O)[C@@H](NC(=O)[C@H](CCC(=O)O)NC(=O)[C@H](C)NC(=O)[C@H](CCCNC(=N)N)NC(=O)[C@H](C)NC(=O)[C@@H](N)CO)C(C)C)C(=O)N[C@@H](CCCNC(=N)N)C(=O)NCc1ccc(N=Nc2ccc(C(=O)N[C@@H](CO)C(N)=O)cc2)cc1 [peptide 12, H2N-SARAEVHLRXS-CONH2] (H-SARAEVHLR[AMPB]S-NH2)	1320 ± 110 nM	19.8 ± 1.7 nM	–
CC(C)C[C@H](NC(=O)[C@H](Cc1c[nH]cn1)NC(=O)c1ccc(N=Nc2ccc(CNC(=O)[C@H](C)NC(=O)[C@H](CCCNC(=N)N)NC(=O)[C@H](C)NC(=O)[C@@H](N)CO)cc2)cc1)C(=O)N[C@@H](CCCNC(=N)N)C(=O)N[C@@H](CCCCN)C(=O)N[C@@H](CO)C(N)=O [peptide 13, H2N-SARAXHLRKS-CONH2] (H-SARA[AMPB]HLRKS-NH2)	293 ± 50 nM	3.63 ± 0.8 nM	–
CC(=O)N[C@@H](C)C(=O)N[C@@H](CCCNC(=N)N)C(=O)N[C@@H](C)C(=O)NCc1ccc(N=Nc2ccc(C(=O)N[C@H](C(=O)N[C@@H](Cc3c[nH]cn3)C(=O)N[C@@H](CC(C)C)C(=O)N[C@@H](CCCNC(=N)N)C(=O)N[C@@H](CCCCN)C(=O)N[C@@H](CO)C(N)=O)C(C)C)cc2)cc1 [peptide 14, Ac-ARAXVHLRKS-CONH2] (Ac-ARA[AMPB]VHLRKS-NH2)	–	1.45 ± 0.52 nM	IC50 (WDR5Δ23; [4]): 102 ± 15 nM; IC50 (WDR5Δ23; [5]): 45 ± 11 nM; Ki (WDR5Δ23; Ki cis (with 5 nM tracer), cis isomer (366 nm), 20 nM WDR5Δ23, 5 nM tracer 22): 4.5 ± 0.82 nM; Ki (WDR5Δ23; Ki trans (with 5 nM tracer), trans isomer, 20 nM WDR5Δ23, 5 nM tracer 22): 1.5 ± 0.63 nM
CC(=O)N[C@@H](C)C(=O)N[C@@H](CCCNC(=N)N)C(=O)N[C@H](C(=O)NCc1ccc(N=Nc2ccc(C(=O)N[C@H](C(=O)N[C@@H](Cc3ccc(O)cc3)C(N)=O)C(C)C)cc2)cc1)[C@@H](C)O [peptide 15, Ac-ARTXVY-CONH2] (Ac-ART[AMPB]VY-NH2)	109 ± 10 nM	0.767 ± 0.15 nM	–
CC(C)C[C@H](NC(=O)[C@H](Cc1c[nH]cn1)NC(=O)[C@@H](NC(=O)[C@H](CCC(=O)O)NC(=O)[C@H](C)NC(=O)[C@H](CCCNC(=N)N)NC(=O)[C@H](C)NC(=O)[C@@H](N)CO)C(C)C)C(=O)N[C@@H](CCCNC(=N)N)C(=O)N[C@@H](CCCCN)C(=O)N[C@@H](CO)C(=O)N[C@@H](CCCNC(=N)N)C(=O)N[C@@H](CCCNC(=N)N)C(=O)N[C@@H](CCCNC(=N)N)C(=O)N[C@@H](CCCNC(=N)N)C(=O)N[C@@H](CCCNC(=N)N)C(=O)N[C@@H](CCCNC(=N)N)C(=O)N[C@@H](CCCNC(=N)N)C(=O)N[C@@H](CCCNC(=N)N)C(N)=O [peptide 20] (H-SARAEVHLRKSRRRRRRRR-NH2)	368 ± 20 nM	4.83 ± 0.31 nM	viability at 50 µM [3]: 87%
CC(C)C[C@H](NC(=O)[C@H](Cc1c[nH]cn1)NC(=O)[C@@H](NC(=O)[C@H](CCC(=O)O)NC(=O)[C@H](C)NC(=O)[C@H](CCCNC(=N)N)NC(=O)[C@H](C)NC(=O)[C@@H](N)CO)C(C)C)C(=O)N[C@@H](CCCNC(=N)N)C(=O)N[C@@H](CCCCN)C(=O)N[C@@H](CO)C(=O)N[C@@H](CCCNC(=N)N)C(=O)NCCCCCC(=O)N[C@@H](CCCNC(=N)N)C(=O)N[C@@H](CCCNC(=N)N)C(=O)NCCCCCC(=O)N[C@@H](CCCNC(=N)N)C(=O)N[C@@H](CCCNC(=N)N)C(=O)NCCCCCC(=O)N[C@@H](CCCNC(=N)N)C(=O)N[C@@H](CCCNC(=N)N)C(=O)NCCCCCC(=O)N[C@@H](CCCNC(=N)N)C(=O)NCCCCCC(=O)NCCC(N)=O [peptide 21] (H-SARAEVHLRKSR[Ahx]RR[Ahx]RR[Ahx]RR[Ahx]R[Ahx][βAla]-NH2)	612 ± 20 nM	8.67 ± 0.32 nM	viability at 50 µM [3]: 96%
H2N-SXARAEVHLRKS-CONH2 [peptide 4, X = AMPB]	–	–	binding constant to WDR5 (in words) (WDR5Δ23; both isomers): not possible to obtain measurable binding constants
